Laboratory results taken from patent publication US11576905B2, “Topical semisolid composition containing an antimicrobial agent and pirfenidone for the treatment of chronic skin damage” (Excalibur Pharmaceuticals, Inc., priority 2017, dated 2023).

Key:
COL1α = COL1α gene expression in ulcer tissue biopsies of treated patients; type: in vivo, human; conditions: first month of treatment
TGFβ1 = TGFβ1 gene expression in ulcer tissue biopsies of treated patients; type: in vivo, human; conditions: first month of treatment

Structure (SMILES): O=C(c1ccc(F)cc1)C1CCN(CCn2c(=O)[nH]c3ccccc3c2=O)CC1 [KTS, Ketanserin]
- Patients showing an increase in COL1α expression (COL1α): 43%
- Patients showing an increase in TGFβ1 gene expression (TGFβ1): 29%
